Experimental data taken from US20250277012A1 (Protagonist Therapeutics, Inc., priority 2021, published 2025).
Read-outs that look alike come from different tables or passages of the source. Starred links: 1 amine or outer side, 2 acyl side, 3 side chain; linkers in the order of their positions; H or OH if unused. Positions of bridges follow the written chain, without caps; N, C: chain ends. Non-standard residues stand in square brackets, D forms with d. Residues, ends and D or L forms follow the SMILES beside them. Groups on a side chain read outwards from the residue. *: point of attachment. Glutaryl(2-isohexyl,5-OMe) = COC(=O)CCC(CCCC(C)C)C(=O)*; Trp(6-OMe) = COc1ccc2c(C[C@H](N)C(=O)O)c[nH]c2c1; Phe(4-CF3) = N[C@@H](Cc1ccc(C(F)(F)F)cc1)C(=O)O; Bip = N[C@@H](Cc1ccc(-c2ccccc2)cc1)C(=O)O; C18 diacid = O=C(O)CCCCCCCCCCCCCCCCC(=O)*; Lys(Me3) = C[N+](C)(C)CCCC[C@H](N)C(=O)O; Dip = N[C@H](C(=O)O)C(c1ccccc1)c1ccccc1; γGlu = O=C(O)[C@H](CCC(=O)[*:2])N[*:1]; Palmitoyl = CCCCCCCCCCCCCCCC(=O)*; β3hF = N[C@H](CC(=O)O)Cc1ccccc1; dPen = CC(C)(S)[C@@H](N)C(=O)O; NMeK = CN[C@@H](CCCCN)C(=O)O; Pen = CC(C)(S)[C@H](N)C(=O)O; Isovaleryl = CC(C)CC(=O)*; NMeC = CN[C@@H](CS)C(=O)O; hCys = N[C@@H](CCS)C(=O)O; Dap = NC[C@H](N)C(=O)O; AEEA = NCCOCCOCC(=O)O; Ahx = NCCCCCC(=O)O

Target: T1, ferroportin (Homo sapiens, UniProt Q9NP59)
T1 sequence (Q9NP59 1-571): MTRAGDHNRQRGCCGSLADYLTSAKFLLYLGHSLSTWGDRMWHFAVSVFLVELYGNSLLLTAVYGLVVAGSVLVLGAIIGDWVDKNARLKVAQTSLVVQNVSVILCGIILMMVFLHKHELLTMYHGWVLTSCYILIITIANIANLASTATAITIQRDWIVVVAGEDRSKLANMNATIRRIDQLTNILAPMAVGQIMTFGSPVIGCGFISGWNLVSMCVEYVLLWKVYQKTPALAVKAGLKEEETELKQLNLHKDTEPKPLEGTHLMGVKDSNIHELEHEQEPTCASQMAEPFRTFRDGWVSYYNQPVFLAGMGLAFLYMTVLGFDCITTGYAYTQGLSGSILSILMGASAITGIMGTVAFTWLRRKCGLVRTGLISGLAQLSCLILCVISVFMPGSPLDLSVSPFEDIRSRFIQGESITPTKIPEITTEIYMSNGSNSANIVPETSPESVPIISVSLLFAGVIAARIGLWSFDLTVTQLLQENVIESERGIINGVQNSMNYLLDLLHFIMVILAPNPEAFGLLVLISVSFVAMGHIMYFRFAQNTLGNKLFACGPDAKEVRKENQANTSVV
Assay: FPN activity assay: ferroportin-GFP internalization/degradation in HEK293 cells
Format: cell-based
Design: expressed in transfected cells
Conditions: read-out: FPN IC50
Protocol: Following internalization, the ferroporin protein is degraded.
A retro inverse peptide is a peptide with a reversed sequence in all D amino acids. An example is that Hy-Glu-Thr-His-NH2 becomes Hy-DHis-DThr-DGlu-NH2. The EC50 of these reference compounds for ferroportin internalization/degradation was determined according to the FPN activity assay described above. These peptides served as control standards.

[1] = ferroportin-GFP internalization/degradation, HEK293 cells, Table 6E
[2] = ferroportin-GFP HEK293 cells, at least 18 hours
[3] = Table 6E, ferroportin-GFP internalization/degradation, at least 18 hours incubation

Compound | DC50 [1] [µM] | DC50 [2] [µM] | further results
CC(C)CC(=O)N[C@@H](CCC(=O)O)C(=O)N[C@H](C(=O)N[C@@H](Cc1c[nH]cn1)C(=O)N[C@H](C(=O)N1CCC[C@H]1C(=O)N[C@H]1CSSC[C@@H](C(=O)N[C@@H](CCCC[N+](C)(C)C)C(=O)N[C@H](C(N)=O)C(c2ccccc2)c2ccccc2)NC1=O)C(c1ccccc1)c1ccccc1)[C@@H](C)O [compound 141] (Isovaleryl-ETH[Dip]PCC[Lys(Me3)][Dip]-NH2; disulfide 6-7) |  |  | DC50 [3]: 0.01 to 0.1 µM
CCCCCCCCCCCCCCCC(=O)NCCCCCC(=O)NCCCC[C@H](NC(=O)C[C@H](Cc1ccccc1)NC(=O)[C@@H]1NC(=O)[C@H]([C@@H](C)CC)NC(=O)[C@H](C)NC(=O)[C@@H]2CCCN2C(=O)[C@H](C(c2ccccc2)c2ccccc2)NC(=O)[C@H](Cc2c[nH]cn2)NC(=O)[C@H]([C@@H](C)O)NC(=O)[C@@H](NC(=O)CC(C)C)CSSC1(C)C)C(=O)N[C@H](CCCCN)C(N)=O [compound 104] (Isovaleryl-CTH[Dip]PAI[dPen][β3hF]K([Ahx-Palmitoyl])[dK]-NH2; disulfide 1-8) |  | 0.01 to 0.1 | 
CC[C@H](C)[C@H](NC(=O)[C@@H]1CSSC[C@H](NC(=O)[C@H](Cc2c[nH]cn2)NC(=O)[C@@H](NC(=O)[C@H](CCC(=O)O)NC(=O)CC(C)C)[C@@H](C)O)C(=O)N2CCC[C@H]2C(=O)N1)C(=O)N[C@@H](CCCCNC(=O)COCCOCCNC(=O)COCCOCCNC(=O)CCCCCNC(=O)CCCCCCCCCCCCCCCCC(=O)O)C(=O)N[C@H](CC(=O)N[C@H](CCCCN)C(N)=O)Cc1ccccc1 [Compd 20] (Isovaleryl-ETHCPCIK([AEEA-AEEA-Ahx-C18 diacid])[β3hF][dK]-NH2; disulfide 4-6) |  | 0.1 to 0.5 | 
CCCCCCCCCCCCCCCC(=O)NCCCCCC(=O)NCCCC[C@H](NC(=O)[C@@H](NC(=O)[C@@H]1CCSSCC[C@H](NC(=O)CC(C)C)C(=O)N[C@@H](CCC(=O)O)C(=O)N[C@@H]([C@@H](C)O)C(=O)N[C@@H](Cc2c[nH]cn2)C(=O)N[C@@H](C(c2ccccc2)c2ccccc2)C(=O)N2CCC[C@H]2C(=O)N1)[C@@H](C)CC)C(=O)N[C@H](CC(N)=O)Cc1ccccc1 [Compd 15] (Isovaleryl-[hCys]ETH[Dip]P[hCys]IK([Ahx-Palmitoyl])[β3hF]-NH2; disulfide 1-7) |  | > 0.5 | 
COC(=O)CCC(CCCC(C)C)C(=O)N[C@H](C(=O)N[C@@H](Cc1c[nH]cn1)C(=O)N[C@H](C(=O)N1CCC[C@H]1C(=O)N[C@H]1CSSC[C@@H](C(=O)N[C@H](CCCCN)C(=O)N[C@H](C(=O)N[C@H](CCCCN)C(N)=O)C(c2ccccc2)c2ccccc2)NC1=O)C(c1ccccc1)c1ccccc1)[C@@H](C)O (stereo partly drawn) [compound 135] ({Glutaryl(2-isohexyl,5-OMe)}-TH[Dip]PCC[dK][Dip][dK]-NH2; disulfide 5-6) |  |  | DC50 [3]: 0.1 to 0.5 µM
CCCCCCCCCCCCCCCC(=O)NCCCCCC(=O)NCCCC[C@H](NC(=O)C[C@H](Cc1ccccc1)NC(=O)[C@@H](CCCCN)NC(=O)[C@@H](NC(=O)[C@@H]1CSSC[C@H](NC(=O)[C@H](CCC(=O)O)NC(=O)CC(C)C)C(=O)N[C@@H](Cc2c[nH]cn2)C(=O)N[C@@H](C(c2ccccc2)c2ccccc2)C(=O)N2CCC[C@H]2C(=O)N1)[C@@H](C)CC)C(=O)N[C@H](CCCCN)C(N)=O [compound 134] (Isovaleryl-ECH[Dip]PCI[dK][β3hF]K([Ahx-Palmitoyl])[dK]-NH2; disulfide 2-6) |  |  | DC50 (Table 6D, ferroportin-GFP internalization/degradation, at least 18 hours incubation): 0.01 to 0.1 µM
CCCCCCCCCCCCCCCC(=O)NCCCCCC(=O)NCCCC[C@H](NC(=O)C[C@H](Cc1ccccc1)NC(=O)[C@@H]1CSSCC[C@H](NC(=O)CC(C)C)C(=O)N[C@@H]([C@@H](C)O)C(=O)N[C@@H](Cc2cnc[nH]2)C(=O)N[C@@H](C(c2ccccc2)c2ccccc2)C(=O)N2CCC[C@H]2C(=O)N[C@@H](C)C(=O)N[C@@H]([C@@H](C)CC)C(=O)N1)C(=O)N[C@H](CCCCN)C(N)=O [compound 110] (Isovaleryl-[hCys]TH[Dip]PAIC[β3hF]K([Ahx-Palmitoyl])[dK]-NH2; disulfide 1-8) |  | 0.001 to 0.01 | 

Now from value to compound, other results behind:

DC50 [1] [µM] | DC50 [2] [µM] | Compound | further results
0.01 to 0.1 |  | CC(C)CC(=O)N[C@@H](CCC(=O)O)C(=O)N[C@H](C(=O)N[C@@H](Cc1c[nH]cn1)C(=O)N[C@H](C(=O)N1CCC[C@H]1C(=O)N[C@@H]1C(=O)N[C@H](C(=O)N[C@@H](CCCCNC(=O)COCCOCCNC(=O)COCCOCCNC(=O)[C@H](CN)NC(=O)CCCCCCCCCCCCCCCCC(=O)O)C(=O)N[C@H](CC(=O)N[C@H](CCCCN)C(N)=O)Cc2ccccc2)C(C)(C)SSC1(C)C)C(c1ccccc1)c1ccccc1)[C@@H](C)O [compound 274] (Isovaleryl-ETH[Dip]P[Pen][Pen]K([AEEA-AEEA-Dap-C18 diacid])[β3hF][dK]-NH2; disulfide 6-7) | 
 | 0.1 to 0.5 | CC(C)CC(=O)N[C@@H](CCC(=O)O)C(=O)N[C@H](C(=O)N[C@@H](Cc1c[nH]cn1)C(=O)N[C@H](C(=O)N1CCC[C@H]1C(=O)N[C@H]1CSSC[C@@H](C(=O)N[C@H](CCCCN)C(=O)N[C@H](CC(=O)N[C@@H](CCCCNC(=O)COCCOCCNC(=O)COCCOCCNC(=O)CC[C@H](NC(=O)CCCCCCCCCCCCCCCCC(=O)O)C(=O)O)C(=O)N[C@H](CCCCN)C(N)=O)Cc2ccccc2)NC1=O)C(c1ccccc1)c1ccccc1)[C@@H](C)O [Compd 28] (Isovaleryl-ETH[Dip]PCC[dK][β3hF]K([AEEA-AEEA-γGlu-C18 diacid])[dK]-NH2; disulfide 6-7) | 
 | 0.1 to 0.5 | CC[C@H](C)[C@H](NC(=O)[C@@H]1CSSC[C@H](NC(=O)[C@@H](NC(=O)[C@H](Cc2c[nH]cn2)NC(=O)[C@@H](NC(=O)[C@H](CCC(=O)O)NC(=O)CC(C)C)[C@@H](C)O)C(c2ccccc2)c2ccccc2)C(=O)N1)C(=O)N[C@H](CCCCN)C(=O)N[C@H](CC(=O)N[C@@H](CCCCNC(=O)COCCOCCNC(=O)COCCOCCNC(=O)CC[C@H](NC(=O)CCCCCCCCCCCCCCCCC(=O)O)C(=O)O)C(=O)N[C@H](CCCCN)C(N)=O)Cc1ccccc1 [Compd 34] (Isovaleryl-ETH[Dip]CCI[dK][β3hF]K([AEEA-AEEA-γGlu-C18 diacid])[dK]-NH2; disulfide 5-6) | 
0.01 to 0.1 |  | CC(C)CC(=O)N[C@@H](CCC(=O)O)C(=O)N[C@H](C(=O)N[C@@H](Cc1c[nH]cn1)C(=O)N[C@H](C(=O)N1CCC[C@H]1C(=O)N[C@H]1CSSC[C@@H](C(=O)N(C)[C@@H](CCCCNC(=O)COCCOCCNC(=O)COCCOCCNC(=O)[C@H](CN)NC(=O)CCCCCCCCCCCCCCCCC(=O)O)C(=O)N[C@H](CC(=O)N[C@H](CCCCN)C(N)=O)Cc2ccccc2)N(C)C1=O)C(c1ccccc1)c1ccccc1)[C@@H](C)O [compound 278] (Isovaleryl-ETH[Dip]PC[NMeC][NMeK]([AEEA-AEEA-Dap-C18 diacid])[β3hF][dK]-NH2; disulfide 6-7) | 
> 0.5 |  | CC(C)CC(=O)N[C@@H](CCC(=O)O)C(=O)N[C@H](C(=O)N[C@@H](Cc1ccc(-c2ccccc2)cc1)C(=O)N[C@H](C(=O)N1CCC[C@H]1C(=O)N[C@H]1CSSC[C@@H](C(=O)N(C)[C@@H](CCCCNC(=O)COCCOCCNC(=O)COCCOCCNC(=O)[C@H](CN)NC(=O)CCCCCCCCCCCCCCCCC(=O)O)C(=O)N[C@H](CC(=O)N[C@H](CCCCN)C(N)=O)Cc2ccccc2)NC1=O)C(c1ccccc1)c1ccccc1)[C@@H](C)O [compound 297] (Isovaleryl-ET[Bip][Dip]PCC[NMeK]([AEEA-AEEA-Dap-C18 diacid])[β3hF][dK]-NH2; disulfide 6-7) | 
 | 0.1 to 0.5 | CCCCCCCCCCCCCCCC(=O)NCCCCCC(=O)NCCCC[C@H](NC(=O)C[C@H](Cc1ccccc1)NC(=O)[C@@H]1CSSC[C@H](NC(=O)[C@@H]2CCCN2C(=O)[C@@H](NC(=O)[C@H](Cc2c[nH]cn2)NC(=O)[C@@H](NC(=O)[C@H](CCC(=O)O)NC(=O)CC(C)C)[C@@H](C)O)C(c2ccccc2)c2ccccc2)C(=O)N[C@@H]([C@@H](C)CC)C(=O)N1)C(=O)N[C@H](CCCCN)C(N)=O [Compd 8] (Isovaleryl-ETH[Dip]PCIC[β3hF]K([Ahx-Palmitoyl])[dK]-NH2; disulfide 6-8) | 
> 0.5 |  | COc1ccc2c(C[C@H](NC(=O)[C@@H](NC(=O)[C@H](CCC(=O)O)NC(=O)CC(C)C)[C@@H](C)O)C(=O)N[C@H](C(=O)N3CCC[C@H]3C(=O)N[C@H]3CSSC[C@@H](C(=O)N(C)[C@@H](CCCCNC(=O)COCCOCCNC(=O)COCCOCCNC(=O)[C@H](CN)NC(=O)CCCCCCCCCCCCCCCCC(=O)O)C(=O)N[C@H](CC(=O)N[C@H](CCCCN)C(N)=O)Cc4ccccc4)NC3=O)C(c3ccccc3)c3ccccc3)c[nH]c2c1 [compound 287] (Isovaleryl-ET[Trp(6-OMe)][Dip]PCC[NMeK]([AEEA-AEEA-Dap-C18 diacid])[β3hF][dK]-NH2; disulfide 6-7) | 
0.1 to 0.5 |  | CC(C)CC(=O)N[C@@H](CCC(=O)O)C(=O)N[C@H](C(=O)N[C@@H](Cc1ccc(C(F)(F)F)cc1)C(=O)N[C@H](C(=O)N1CCC[C@H]1C(=O)N[C@H]1CSSC[C@@H](C(=O)N(C)[C@@H](CCCCNC(=O)COCCOCCNC(=O)COCCOCCNC(=O)[C@H](CN)NC(=O)CCCCCCCCCCCCCCCCC(=O)O)C(=O)N[C@H](CC(=O)N[C@H](CCCCN)C(N)=O)Cc2ccccc2)NC1=O)C(c1ccccc1)c1ccccc1)[C@@H](C)O [compound 286] (Isovaleryl-ET[Phe(4-CF3)][Dip]PCC[NMeK]([AEEA-AEEA-Dap-C18 diacid])[β3hF][dK]-NH2; disulfide 6-7) | 
